System: NCI-H1876 tumor spheroid viability
Experiment: Anticancer human tumor NCI-H1876 cell line growth inhibition;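 also: spheroids exposed to compounds for seven days before the viability read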;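 as to viability, T/C: percent of DMSO vehicle control viability so 100% = vehicle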
Conditions: spheroids with HUVEC and MSC; for IC50: curve of first compound; for viability, T/C: stronger effect = lower value
Procedure, shortened: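 Complex spheroids of malignant cells with endothelial cells and mesenchymal stem cells; agents alone or combined, from near clinical Cmax (or 10 microM if unknown) down in half-log steps, 0.25% DMSO final.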

[1] = second compound 30 pM, first compound 0.00949 µM
[2] = second compound 30 pM, first compound 0.03 µM
[3] = second compound 30 pM, first compound 0.0949 µM
[4] = second compound 30 pM, first compound 0.3 µM
[5] = second compound 30 pM, first compound 0.949 µM
[6] = second compound 30 pM, first compound 3 µM
[7] = second compound 94.9 pM, first compound 0.00949 µM
[8] = second compound 94.9 pM, first compound 0.03 µM
[9] = second compound 94.9 pM, first compound 0.0949 µM
[10] = second compound 94.9 pM, first compound 0.3 µM
[11] = second compound 94.9 pM, first compound 0.949 µM
[12] = second compound 94.9 pM, first compound 3 µM
[13] = second compound 0.0003 µM, first compound 0.00949 µM
[14] = second compound 0.0003 µM, first compound 0.03 µM
[15] = second compound 0.0003 µM, first compound 0.0949 µM
[16] = second compound 0.0003 µM, first compound 0.3 µM
[17] = second compound 0.0003 µM, first compound 0.949 µM
[18] = second compound 0.0003 µM, first compound 3 µM
[19] = second compound 0.000949 µM, first compound 0.00949 µM
[20] = second compound 0.000949 µM, first compound 0.03 µM
[21] = second compound 0.000949 µM, first compound 0.0949 µM
[22] = second compound 0.000949 µM, first compound 0.3 µM
[23] = second compound 0.000949 µM, first compound 0.949 µM
[24] = second compound 0.000949 µM, first compound 3 µM
[25] = second compound 0.003 µM, first compound 0.00949 µM
[26] = second compound 0.003 µM, first compound 0.03 µM
[27] = second compound 0.003 µM, first compound 0.0949 µM
[28] = second compound 0.003 µM, first compound 0.3 µM
[29] = second compound 0.003 µM, first compound 0.949 µM
[30] = second compound 0.003 µM, first compound 3 µM

Structure (SMILES)	IC50 (second compound 30 pM)	IC50 (second compound 94.9 pM)	IC50 (second compound 0.0003 µM)	IC50 (second compound 0.000949 µM)	IC50 (second compound 0.003 µM)	viability, T/C [3]	viability, T/C [4]	viability, T/C [5]	viability, T/C [6]	viability, T/C [9]	viability, T/C [10]	viability, T/C [11]	viability, T/C [12]	viability, T/C [15]	viability, T/C [16]	viability, T/C [17]	viability, T/C [18]	viability, T/C [21]	viability, T/C [22]	viability, T/C [23]	other results
CNCc1ccc(-c2cc(-c3nc(-c4ccc(S(=O)(=O)C(C)C)cc4)cnc3N)on2)cc1 + COc1cc2c(cc1O)CCNC21CSC2c3c(OC(C)=O)c(C)c4c(c3C(COC1=O)N1C(O)C3Cc5cc(C)c(OC)c(O)c5C(C21)N3C)OCO4	571 nM	223 nM	< 9.49 nM	< 9.49 nM	< 9.49 nM	97.8%	67.2%	36.5%	16.2%	70.5%	42.5%	21.2%	10.1%	16.4%	12.7%	9.09%	6.61%	3.12%	3.01%	4.43%	viability, T/C [1]: 103%; viability, T/C [2]: 103%; viability, T/C [7]: 94.4%; viability, T/C [8]: 89%; viability, T/C [13]: 27.9%; viability, T/C [14]: 24.4%; viability, T/C [19]: 4.01%; viability, T/C [20]: 3.41%; viability, T/C [24]: 2.48%; viability, T/C [25]: 0.56%; viability, T/C [26]: 1.11%; viability, T/C [27]: 1.21%; viability, T/C [28]: 0.84%; viability, T/C [29]: 0.9%; viability, T/C [30]: 0.8%
Cc1sc2c(c1C)C(c1ccc(Cl)cc1)=NC(CC(=O)Nc1ccc(O)cc1)c1nnc(C)n1-2 (stereo not given) + COc1cc2c(cc1O)CCNC21CSC2c3c(OC(C)=O)c(C)c4c(c3C(COC1=O)N1C(O)C3Cc5cc(C)c(OC)c(O)c5C(C21)N3C)OCO4	265 nM	148 nM	< 9.49 nM	< 9.49 nM	< 9.49 nM	104%	43.3%	17.1%	8.32%	60.6%	30.8%	9.48%	5.87%	22.7%	4.78%	2.87%	3.05%	1.98%	2.62%	1.67%	viability, T/C [1]: 104%; viability, T/C [2]: 108%; viability, T/C [7]: 100%; viability, T/C [8]: 95.4%; viability, T/C [13]: 29.3%; viability, T/C [14]: 23.2%; viability, T/C [19]: 3.88%; viability, T/C [20]: 2.86%; viability, T/C [24]: 2.3%; viability, T/C [25]: 0.46%; viability, T/C [26]: 0.43%; viability, T/C [27]: 0.51%; viability, T/C [28]: 0.57%; viability, T/C [29]: 0.25%; viability, T/C [30]: 0.65%
Cn1ncnc1[C@H]1c2n[nH]c(=O)c3cc(F)cc(c23)N[C@@H]1c1ccc(F)cc1 + COc1cc2c(cc1O)CCNC21CSC2c3c(OC(C)=O)c(C)c4c(c3C(COC1=O)N1C(O)C3Cc5cc(C)c(OC)c(O)c5C(C21)N3C)OCO4	35.5 nM	< 9.49 nM	< 9.49 nM	< 9.49 nM	< 9.49 nM	28.6%	11.9%	6.01%	3.44%	15.5%	7.46%	5.44%	2.76%	5.49%	4.25%	5.23%	2.79%	2.85%	3.24%	2.36%	viability, T/C [1]: 80.3%; viability, T/C [2]: 53.5%; viability, T/C [7]: 47.9%; viability, T/C [8]: 28.1%; viability, T/C [13]: 11.8%; viability, T/C [14]: 7.22%; viability, T/C [19]: 2.86%; viability, T/C [20]: 3.01%; viability, T/C [24]: 1.56%; viability, T/C [25]: 0.64%; viability, T/C [26]: 0.8%; viability, T/C [27]: 0.45%; viability, T/C [28]: 0.68%; viability, T/C [29]: 1.05%; viability, T/C [30]: 0.79%
O=C(c1cc(Cc2n[nH]c(=O)c3ccccc23)ccc1F)N1CCN(C(=O)C2CC2)CC1 + COc1cc2c(cc1O)CCNC21CSC2c3c(OC(C)=O)c(C)c4c(c3C(COC1=O)N1C(O)C3Cc5cc(C)c(OC)c(O)c5C(C21)N3C)OCO4	3300 nM	1900 nM	< 94.9 nM	< 94.9 nM	< 94.9 nM	99.7%	98.4%	92.7%	53.4%	85.8%	82.7%	70.5%	37.2%	15.1%	16.9%	12.9%	7.99%	2.17%	2.25%	2.87%	viability, T/C (second compound 30 pM, first compound 9.49 µM): 14.2%; viability, T/C (second compound 30 pM, first compound 30 µM): 9.96%; viability, T/C (second compound 94.9 pM, first compound 9.49 µM): 7.9%; viability, T/C (second compound 94.9 pM, first compound 30 µM): 7.02%; viability, T/C (second compound 0.0003 µM, first compound 9.49 µM): 5.74%; viability, T/C (second compound 0.0003 µM, first compound 30 µM): 4.63%; viability, T/C [24]: 2.49%; viability, T/C (second compound 0.000949 µM, first compound 9.49 µM): 2.27%; viability, T/C (second compound 0.000949 µM, first compound 30 µM): 2.54%; viability, T/C [27]: 6.83%; viability, T/C [28]: 0.52%; viability, T/C [29]: 0.47%; viability, T/C [30]: 0.53%; viability, T/C (second compound 0.003 µM, first compound 9.49 µM): 0.55%; viability, T/C (second compound 0.003 µM, first compound 30 µM): 0.95%

— PubChem BioAssay AID1845207 (Molecular Pharmacology Branch, DTP, NCI, 2023)
